{"source": "ChEMBL document CHEMBL1201862", "about": "“PubChem BioAssay data set” (2004)", "key": {"[1]": {"experiment": "reduction of Shn3 3'UTR-driven luciferase in osteoblasts – cell-based, Clone20 osteoblasts, firefly luciferase, cherry-picked, dose response (AID 624132)", "type": "functional"}, "[2]": {"experiment": "loss of viability in HepG2 cells – cell-based, CellTiter-Glo, cherry-picked, cytotoxicity control for Shn3 inhibitor project, dose response (AID 624134)", "type": "functional"}, "[3]": {"experiment": "non-specific 3'UTR reporter inhibition in Clone20-Shn3RL – cell-based, Renilla luciferase, cherry-picked, counter-screen for Shn3 inhibitor project, dose response (AID 624133)", "type": "functional"}, "[4]": {"experiment": "Luminescence Cell-Based Dose Confirmation HTS to Identify Inhibitors of Platelet Dense Granule Release. [Related pubchem assays: 1663 (Primary HTS), 1678 (Summary of Project)]", "type": "functional"}, "[5]": {"target": "Luciferin 4-monooxygenase (Photinus pyralis, UniProt P08659)", "sequence (P08659 whole entry)": "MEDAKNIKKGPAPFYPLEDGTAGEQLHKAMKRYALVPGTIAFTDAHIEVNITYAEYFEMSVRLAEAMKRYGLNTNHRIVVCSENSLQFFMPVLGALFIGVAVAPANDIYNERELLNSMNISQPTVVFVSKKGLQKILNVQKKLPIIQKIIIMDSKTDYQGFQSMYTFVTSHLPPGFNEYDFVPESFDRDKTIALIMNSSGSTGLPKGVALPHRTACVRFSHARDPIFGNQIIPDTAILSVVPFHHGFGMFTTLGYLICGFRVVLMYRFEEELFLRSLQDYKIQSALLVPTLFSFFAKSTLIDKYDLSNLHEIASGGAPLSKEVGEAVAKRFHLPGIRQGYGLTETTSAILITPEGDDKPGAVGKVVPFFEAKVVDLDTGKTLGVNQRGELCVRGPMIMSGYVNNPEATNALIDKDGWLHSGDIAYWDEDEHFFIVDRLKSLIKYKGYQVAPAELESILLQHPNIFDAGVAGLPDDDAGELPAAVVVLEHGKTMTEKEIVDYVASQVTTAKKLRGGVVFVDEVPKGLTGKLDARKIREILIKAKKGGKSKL", "experiment": "inhibition of purified Photinus pyralis luciferase – biochemical, luminescence, dose response (AID 1891)"}, "[6]": {"target": "T1, RNA-binding protein pos-1 (Caenorhabditis elegans, UniProt G5EF15)", "T1 sequence (G5EF15 whole entry)": "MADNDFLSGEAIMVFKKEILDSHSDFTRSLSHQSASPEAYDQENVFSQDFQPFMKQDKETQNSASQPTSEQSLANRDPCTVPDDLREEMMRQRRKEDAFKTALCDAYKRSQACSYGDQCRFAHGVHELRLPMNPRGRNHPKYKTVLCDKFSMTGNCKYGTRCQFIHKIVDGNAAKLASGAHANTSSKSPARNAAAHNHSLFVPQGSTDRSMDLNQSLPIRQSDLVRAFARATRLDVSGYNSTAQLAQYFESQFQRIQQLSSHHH", "experiment": "disruptors of C. elegans POS-1 RNA interaction – biochemical, fluorescence polarization, dose response (AID 1964);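 note: purified POS-1 fused to maltose binding protein made in E. coli; potency of compounds blocking POS-1 binding to fluorescent RNA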"}, "cells [7]": {"experiment": "cells", "type": "functional, cell-based"}, "cells [8]": {"experiment": "cells", "type": "functional, cell-based", "remark": "listed apart in the source"}, "[9]": {"experiment": "viability of PTEN-deleted HCT116 cells – cell-based, HCT116 PTEN knockout, dose response (AID 1047);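 note: HCT116 colon tumor cells with PTEN knocked out; cells exposed to compound for 60 hours before readout; potency for loss of cell viability measured by luminescence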", "type": "functional"}, "[10]": {"experiment": "viability of HCT116 lacking mutant beta-catenin – cell-based, human colon tumor, dose response (AID 1045);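 note: HCT116 colon tumor cells with beta catenin knocked out; cells exposed to compound for 60 hours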", "type": "functional"}, "Protein skinhead-1": {"target": "T2, Protein skinhead-1 (Caenorhabditis elegans, UniProt P34707)", "T2 sequence (P34707 whole entry)": "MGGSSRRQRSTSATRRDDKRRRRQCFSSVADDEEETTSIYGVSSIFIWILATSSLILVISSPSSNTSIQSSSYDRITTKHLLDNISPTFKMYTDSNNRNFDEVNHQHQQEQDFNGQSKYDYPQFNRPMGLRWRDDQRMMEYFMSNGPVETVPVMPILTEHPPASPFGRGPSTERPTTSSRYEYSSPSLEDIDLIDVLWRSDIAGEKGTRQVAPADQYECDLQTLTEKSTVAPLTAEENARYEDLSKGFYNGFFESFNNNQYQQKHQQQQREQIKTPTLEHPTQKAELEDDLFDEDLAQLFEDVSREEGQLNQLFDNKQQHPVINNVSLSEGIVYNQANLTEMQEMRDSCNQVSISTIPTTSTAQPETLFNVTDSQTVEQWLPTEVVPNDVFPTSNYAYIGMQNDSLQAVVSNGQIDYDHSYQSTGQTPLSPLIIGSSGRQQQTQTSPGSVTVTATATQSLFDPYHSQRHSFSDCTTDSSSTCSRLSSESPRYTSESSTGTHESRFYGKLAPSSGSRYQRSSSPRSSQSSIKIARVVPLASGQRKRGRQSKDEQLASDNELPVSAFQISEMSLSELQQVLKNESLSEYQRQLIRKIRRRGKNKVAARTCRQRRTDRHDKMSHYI", "type": "functional"}, "Cytochrome P450 2C9": {"target": "Cytochrome P450 2C9 (Homo sapiens, UniProt P11712)", "sequence (P11712 whole entry)": "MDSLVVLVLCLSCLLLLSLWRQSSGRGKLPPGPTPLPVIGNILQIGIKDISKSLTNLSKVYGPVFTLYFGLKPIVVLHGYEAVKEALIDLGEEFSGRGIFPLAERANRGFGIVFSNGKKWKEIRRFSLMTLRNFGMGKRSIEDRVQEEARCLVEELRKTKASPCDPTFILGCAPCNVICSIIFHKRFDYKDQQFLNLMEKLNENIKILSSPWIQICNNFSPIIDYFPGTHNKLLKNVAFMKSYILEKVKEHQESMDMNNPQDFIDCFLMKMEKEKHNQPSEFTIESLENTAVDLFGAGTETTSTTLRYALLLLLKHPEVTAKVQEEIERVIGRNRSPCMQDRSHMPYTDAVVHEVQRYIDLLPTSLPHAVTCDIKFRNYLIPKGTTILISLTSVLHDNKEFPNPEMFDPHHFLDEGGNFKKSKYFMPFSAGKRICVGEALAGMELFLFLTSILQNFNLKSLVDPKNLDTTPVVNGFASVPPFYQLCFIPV"}, "[11]": {"target": "T3, Calpain-2 catalytic subunit (Sus scrofa, UniProt P43367)", "T3 sequence (P43367 whole entry)": "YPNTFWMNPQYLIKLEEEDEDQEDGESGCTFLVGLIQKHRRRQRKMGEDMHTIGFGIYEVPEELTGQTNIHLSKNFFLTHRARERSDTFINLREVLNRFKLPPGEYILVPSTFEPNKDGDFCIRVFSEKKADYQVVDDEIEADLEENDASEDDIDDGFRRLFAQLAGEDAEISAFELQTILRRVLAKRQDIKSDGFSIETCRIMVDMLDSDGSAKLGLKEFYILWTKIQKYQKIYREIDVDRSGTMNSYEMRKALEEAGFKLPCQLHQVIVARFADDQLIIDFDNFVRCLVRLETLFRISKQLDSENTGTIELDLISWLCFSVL", "experiment": "m-calpain protease blockers, concentration series – biochemical, fluorogenic peptide substrate, dose response (AID 1420)", "type": "functional"}, "Cytochrome P450 1A2": {"target": "T4, Cytochrome P450 1A2 (Homo sapiens, UniProt P05177)", "T4 sequence (P05177 whole entry)": "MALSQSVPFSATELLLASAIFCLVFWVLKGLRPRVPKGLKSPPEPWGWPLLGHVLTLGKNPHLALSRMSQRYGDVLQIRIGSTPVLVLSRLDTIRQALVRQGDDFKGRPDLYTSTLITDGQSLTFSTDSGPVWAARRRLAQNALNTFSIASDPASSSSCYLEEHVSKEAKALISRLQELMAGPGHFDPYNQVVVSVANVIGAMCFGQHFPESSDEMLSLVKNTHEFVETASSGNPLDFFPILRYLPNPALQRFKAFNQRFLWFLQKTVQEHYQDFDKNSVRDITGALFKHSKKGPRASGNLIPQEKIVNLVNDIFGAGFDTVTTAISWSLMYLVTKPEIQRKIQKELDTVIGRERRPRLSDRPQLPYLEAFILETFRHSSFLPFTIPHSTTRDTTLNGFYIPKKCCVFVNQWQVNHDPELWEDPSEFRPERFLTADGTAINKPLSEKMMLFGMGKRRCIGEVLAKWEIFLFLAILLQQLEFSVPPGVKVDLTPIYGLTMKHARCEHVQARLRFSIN"}, "[12]": {"experiment": "blockers of HIV-1 envelope-mediated cell-cell fusion – cherry-pick, dose response (AID 652057)", "type": "functional, cell-based"}, "[13]": {"experiment": "HIV-1 AD8 envelope cell-cell fusion blockers – cherry-pick, dose response (AID 652062);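 note: luciferase signal from cell-cell fusion driven by HIV-1 clade B AD8 Env; potency is for inhibitors of fusion seen as a drop in luminescence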", "type": "functional, cell-based"}, "[14]": {"experiment": "Trypanosoma cruzi growth suppression in host cells – NIH3T3 host cells, beta-gal luminescence, confirmation (AID 2044);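 note: intracellular parasites grown in NIH/3T3 mouse fibroblasts as host cells; luminescent beta-galactosidase reporter signal from transgenic T. cruzi replicating inside host cells; inhibitors lower the luminescence signal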", "type": "functional, cell-based"}, "[15]": {"experiment": "NIH3T3 cell viability loss – ATP luminescence, mouse fibroblasts, counter-screen, dose response (AID 2010);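 note: cells exposed to compound for about 90 hours before reading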", "type": "functional, cell-based"}}, "note": "Activity calls are given as the source filed them.", "data": [{"smiles": "CC(=O)Nc1cccc(NC(=O)CSc2ncc(-c3ccc(Cl)cc3)n2Cc2ccco2)c1", "values": [{"measurement": "AC50", "setting": "[1]", "result": "4.95 µM (active)"}, {"measurement": "AC50", "setting": "[2]", "result": "60.2 µM (active)"}, {"measurement": "AC50", "setting": "[3]", "result": "10.7 µM (active)"}]}, {"smiles": "CCCCOc1cccc(-c2cc(C(=O)NN=C(S)NCC)c3ccccc3n2)c1", "values": [{"measurement": "EC50", "setting": "[4]", "result": "111 µM (active)"}]}, {"smiles": "CCCCOc1cccc(-c2cc(C(=O)NNC(=S)NCC)c3ccccc3n2)c1", "values": [{"measurement": "EC50", "setting": "[5]", "result": "2.3 µM (active)"}]}, {"smiles": "O=C(O)COc1ccc(/C=C/c2n[nH]c(-c3ccccc3O)n2)cc1", "values": [{"measurement": "EC50", "setting": "[6]", "result": "> 300 µM (not active)"}]}, {"smiles": "COc1ccc(CC(=O)Nc2cccc(-c3nnc(-c4ccccc4)o3)c2)cc1OC", "values": [{"measurement": "EC50", "setting": "cells [7]", "result": "> 350 µM (not active)"}, {"measurement": "EC50", "setting": "cells [8]", "result": "> 350 µM (not active)"}, {"measurement": "EC50", "setting": "[9]", "result": "25.4 µM (active)"}, {"measurement": "EC50", "setting": "[10]", "result": "69.6 µM (active)"}]}, {"smiles": "CCC(=O)N1CCN(c2nc3ccc(Br)cc3s2)CC1", "values": [{"measurement": "EC50", "setting": "cells [7]", "result": "> 350 µM (not active)"}, {"measurement": "EC50", "setting": "cells [8]", "result": "144 µM (active)"}, {"measurement": "IC50", "setting": "Protein skinhead-1", "result": "58.6 µM (inactive)"}]}, {"smiles": "O=C(NCc1cccc(Cl)c1)c1cc(COc2ccc3ncccc3c2)on1", "values": [{"measurement": "AC50", "setting": "[1]", "result": "3.05 µM (active)"}, {"measurement": "AC50", "setting": "[2]", "result": "38.7 µM (active)"}, {"measurement": "AC50", "setting": "[3]", "result": "14.8 µM (active)"}]}, {"smiles": "CCn1ccnc1C(O)c1ccccc1OC", "note": "(stereo not drawn)", "values": [{"measurement": "EC50", "setting": "cells [7]", "result": "> 350 µM (not active)"}, {"measurement": "EC50", "setting": "cells [8]", "result": "> 350 µM (not active)"}]}, {"smiles": "Cc1ccc(C(=O)CCC(=O)Nc2cccc(C(F)(F)F)c2)cc1", "values": [{"measurement": "EC50", "setting": "[5]", "result": "> 112 µM (not active)"}, {"measurement": "EC50", "setting": "[4]", "result": "> 112 µM (not active)"}]}, {"smiles": "Cc1ccc(CNC(=O)CCNS(=O)(=O)c2ccc3c(c2)c(=O)n(C)c(=O)n3C)cc1", "values": [{"measurement": "AC50", "setting": "Cytochrome P450 2C9", "result": "inconclusive"}]}, {"smiles": "O=C(COc1cccc2cccnc12)NNC(=O)Nc1ccccc1", "values": [{"measurement": "IC50", "setting": "[11]", "result": "< 0.4 µM (not active)"}]}, {"smiles": "COC(=O)CN(c1ccccn1)S(=O)(=O)c1ccccc1", "values": [{"measurement": "AC50", "setting": "Cytochrome P450 1A2", "result": "25.1 µM (inconclusive)"}, {"measurement": "AC50", "setting": "Cytochrome P450 2C9", "result": "inconclusive"}]}, {"smiles": "Cc1ccc2c(c1)C(CCN)C(=O)N2Cc1ccccc1", "note": "(stereo not drawn)", "values": [{"measurement": "EC50", "setting": "[5]", "result": "> 112 µM (not active)"}, {"measurement": "EC50", "setting": "[4]", "result": "> 112 µM (not active)"}]}, {"smiles": "Cc1cc2ncn(S(=O)(=O)N3CCCCC3)c2cc1C", "values": [{"measurement": "AC50", "setting": "[12]", "result": "5.54 µM (active)"}, {"measurement": "AC50", "setting": "[13]", "result": "60.6 µM (active)"}]}, {"smiles": "c1c2c(cc3sc(N4CCOCC4)nc13)OCCO2", "values": [{"measurement": "EC50", "setting": "[5]", "result": "11.4 µM (active)"}, {"measurement": "EC50", "setting": "[4]", "result": "3.56 µM (active)"}]}, {"smiles": "O=S(=O)(Cc1ccccc1)NCC1CCCN(Cc2ccc(F)c(F)c2)C1", "note": "(stereo not drawn)", "values": [{"measurement": "EC50", "setting": "[14]", "result": "0.199 µM (active)"}, {"measurement": "IC50", "setting": "[11]", "result": "17.6 µM (not active)"}, {"measurement": "EC50", "setting": "[15]", "result": "> 60 µM (not active)"}]}]}
